Test results published in publication PMC4891657, “Orexin 2 Receptor Antagonism is Sufficient to Promote NREM and REM Sleep from Mouse to Man” (Scientific Reports, 2016).

Legend:
OX2R [1] = biological target: T1, OX2R (Mus musculus, UniProt P58308); experiment: Inhibition of orexin-peptide-A-induced calcium mobilization in CHO cells, mouse OX2R; assay type: cell-based; conditions: for fold OX2R selectivity (Kb): OX1R Kb / OX2R Kb
T1 construct: expressed in transfected cells; host or cells: CHO-K1
T1 sequence (P58308 1-460): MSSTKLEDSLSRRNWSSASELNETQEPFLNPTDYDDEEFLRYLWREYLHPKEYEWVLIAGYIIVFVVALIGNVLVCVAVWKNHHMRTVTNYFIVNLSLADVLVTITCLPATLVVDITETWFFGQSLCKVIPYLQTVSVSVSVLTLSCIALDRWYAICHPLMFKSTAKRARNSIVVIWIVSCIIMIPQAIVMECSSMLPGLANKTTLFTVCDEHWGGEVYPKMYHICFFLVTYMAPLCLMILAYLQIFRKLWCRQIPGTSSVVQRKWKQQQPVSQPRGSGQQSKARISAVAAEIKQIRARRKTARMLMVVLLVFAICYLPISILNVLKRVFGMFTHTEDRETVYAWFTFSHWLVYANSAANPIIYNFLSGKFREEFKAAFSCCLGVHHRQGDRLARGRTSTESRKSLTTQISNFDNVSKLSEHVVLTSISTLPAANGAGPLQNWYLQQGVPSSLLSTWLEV
Method: (§1) MK-1064 was evaluated for its ability to inhibit orexin-peptide-A-induced calcium mobilization in CHO cell lines separately expressing OX1R and OX2R from mice, rats, rabbits, dogs, rhesus monkeys and humans.
(§2) Binding and functional blockade of OX1R and OX2R with MK-1064 relative to other 2-SORAs and the DORA, MK-6096, were assessed using membranes from Chinese hamster ovary (CHO)-K1 cells (American Type Tissue Collection, Manassas, VA) transfected to express human, mouse, rat, rabbit, dog, or rhesus monkey OX1R or OX2R receptors, as described previously. The kinetics of binding to human OX2R was assessed by radioligand displacement on CHO-K1 cells expressing the receptor. […] The ON rate analysis was performed by presoaking GF/B filters in 0.3% polyethyleneimine (Sigma) using a Skatron 12-well cell harvester and cold buffer at the indicated time points after addition. For OFF rate determination, binding reactions were allowed to proceed to equilibrium and terminated with 1000x [Kd] of unlabeled antagonist and filtered as above at pre-determined time points. Ultima Gold^TM (PerkinElmer 6013327) scintillation cocktail was added to each filter disc and counted on a PerkinElmer TriCarb 2910 scintillation counter. Data were analyzed using GraphPad® Prism v 6.04 (San Diego, CA, USA). The KON rate was determined according to the equation, KON = (KOBS − KOFF)/[ligand].

hOX1R = biological target: T2, hOX1R (Homo sapiens, UniProt O43613); experiment: Radio-ligand displacement binding, CHO-K1 membranes, human OX1R; conditions: read-out: OX1R affinity (Ki)
T2 construct: expressed in transfected cells; host or cells: CHO-K1
T2 sequence (O43613 1-425): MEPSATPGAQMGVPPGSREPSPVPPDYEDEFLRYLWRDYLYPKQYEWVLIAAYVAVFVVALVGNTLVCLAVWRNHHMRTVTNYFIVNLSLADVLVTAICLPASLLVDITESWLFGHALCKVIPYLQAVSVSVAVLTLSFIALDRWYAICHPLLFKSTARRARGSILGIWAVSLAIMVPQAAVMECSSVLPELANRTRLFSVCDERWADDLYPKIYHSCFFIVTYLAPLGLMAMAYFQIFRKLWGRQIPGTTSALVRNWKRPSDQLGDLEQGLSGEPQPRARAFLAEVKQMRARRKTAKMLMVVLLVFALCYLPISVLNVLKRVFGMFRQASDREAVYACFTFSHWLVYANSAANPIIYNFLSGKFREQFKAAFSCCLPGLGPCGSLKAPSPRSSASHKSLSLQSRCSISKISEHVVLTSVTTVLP
Method: as §1, §2

OX2R [2] = biological target: T3, OX2R (Canis lupus familiaris, UniProt Q9TUP7); experiment: Radio-ligand displacement binding, CHO-K1 membranes, dog OX2R; conditions: for fold OX2R selectivity (Ki): OX1R Ki / OX2R Ki; for Ki: read-out: OX2R affinity (Ki)
T3 construct: expressed in transfected cells; host or cells: CHO-K1
T3 sequence (Q9TUP7 1-444): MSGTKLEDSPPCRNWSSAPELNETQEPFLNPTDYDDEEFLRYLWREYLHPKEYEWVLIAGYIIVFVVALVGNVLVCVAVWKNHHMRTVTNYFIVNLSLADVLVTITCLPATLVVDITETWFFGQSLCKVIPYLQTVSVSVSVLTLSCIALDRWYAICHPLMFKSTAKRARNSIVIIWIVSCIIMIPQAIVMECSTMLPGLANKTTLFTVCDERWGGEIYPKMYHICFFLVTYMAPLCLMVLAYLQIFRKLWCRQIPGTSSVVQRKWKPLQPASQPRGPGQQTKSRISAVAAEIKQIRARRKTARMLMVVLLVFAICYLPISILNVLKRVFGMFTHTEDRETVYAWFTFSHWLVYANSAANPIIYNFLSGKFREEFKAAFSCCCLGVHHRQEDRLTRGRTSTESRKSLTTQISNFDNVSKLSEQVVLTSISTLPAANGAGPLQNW
Method: as §1, §2

OX1R [3] = biological target: T4, OX1R (Oryctolagus cuniculus, UniProt G1SPJ3); experiment: Radio-ligand displacement binding, CHO-K1 membranes, rabbit OX1R; conditions: read-out: OX1R affinity (Ki)
T4 sequence (G1SPJ3 1-416): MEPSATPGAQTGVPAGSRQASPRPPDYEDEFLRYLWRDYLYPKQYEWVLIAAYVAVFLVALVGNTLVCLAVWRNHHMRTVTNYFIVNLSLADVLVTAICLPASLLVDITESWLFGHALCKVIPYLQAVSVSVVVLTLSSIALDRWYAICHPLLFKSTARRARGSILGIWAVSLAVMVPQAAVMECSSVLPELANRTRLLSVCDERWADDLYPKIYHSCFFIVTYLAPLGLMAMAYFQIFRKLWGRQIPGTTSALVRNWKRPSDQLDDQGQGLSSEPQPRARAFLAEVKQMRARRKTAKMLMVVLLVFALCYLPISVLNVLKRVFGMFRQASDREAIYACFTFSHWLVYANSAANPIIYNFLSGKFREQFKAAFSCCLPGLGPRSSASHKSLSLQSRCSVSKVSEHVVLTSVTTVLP
Method: as §1, §2

OX1R [4] = biological target: T5, OX1R (Rattus norvegicus, UniProt P56718); experiment: Inhibition of orexin-peptide-A-induced calcium mobilization in CHO cells, rat OX1R; assay type: cell-based
T5 construct: expressed in transfected cells; host or cells: CHO-K1
T5 sequence (P56718 1-416): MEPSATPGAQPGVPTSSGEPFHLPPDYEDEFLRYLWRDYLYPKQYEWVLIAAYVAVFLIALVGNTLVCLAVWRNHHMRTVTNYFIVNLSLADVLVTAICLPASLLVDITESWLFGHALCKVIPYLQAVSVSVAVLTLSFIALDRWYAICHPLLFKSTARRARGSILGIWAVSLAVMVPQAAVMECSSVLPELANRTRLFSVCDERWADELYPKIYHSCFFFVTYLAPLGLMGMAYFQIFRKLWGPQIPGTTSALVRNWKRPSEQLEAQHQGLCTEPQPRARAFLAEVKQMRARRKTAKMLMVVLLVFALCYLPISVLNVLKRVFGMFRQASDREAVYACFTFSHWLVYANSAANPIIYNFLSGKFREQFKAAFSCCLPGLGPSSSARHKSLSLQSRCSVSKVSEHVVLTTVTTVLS
Method: as §1, §2

OX2R [5] = biological target: T3, OX2R; experiment: Inhibition of orexin-peptide-A-induced calcium mobilization in CHO cells, dog OX2R; assay type: cell-based; conditions: for fold OX2R selectivity (Kb): OX1R Kb / OX2R Kb
Method: as §1, §2

Row | SMILES | Kb (OX2R [1]) [nM] | fold OX2R selectivity (Kb) (OX2R [1]) | Ki (hOX1R) [nM] | fold OX2R selectivity (Ki) (OX2R [2]) | Ki (OX2R [2]) [nM] | Ki (OX1R [3]) [nM] | Kb (OX1R [4]) [nM] | Kb (OX2R [5]) [nM] | fold OX2R selectivity (Kb) (OX2R [5])
1 | Cc1ccc(-c2ncccn2)c(C(=O)N2C[C@H](COc3ccc(F)cn3)CC[C@H]2C)c1 [MK-6096] | 10 | [0.9] fold | 2.5 | [7.5] fold | 0.36 | 2.6 | 10 | 10 | [1.0] fold
2 | COc1ccc(CNC(=O)c2cc(-c3cncc(C)c3)ncc2-c2ccccc2)nc1OC [2-SORA-7] | 14 | [568] fold | 2800 | [2857] fold | 0.63 | 4390 | 58300 | 13 | [>769] fold
3 | COc1ccc(CNC(=O)c2cc(-c3cncc(Cl)c3)cnc2-c2ccccn2)nc1OC [MK-1064, 5″-chloro-N-[(5,6-dimethoxypyridin-2-yl)methyl]-2,2′:5′, 3″-terpyridine-3′-carbo xamide] | 7 | [1471] fold | 1500 | [1667] fold | 0.78 | 2440 | 7970 | 11 | [337] fold
4 | COc1ccc(CNC(=O)c2cc(-c3cncc(C)c3)ncc2-c2nccs2)nc1OC [MK-3697] | 12 | – | – | – | 1.1 | 4740 | 36400 | 16 | –
5 | COc1ccc(CNC(=O)c2cc(-c3cc(Cl)cc(Cl)c3)cnc2-c2cccnc2)cc1OC [2-SORA-18] | 24 | [9] fold | 100 | [782] fold | 0.11 | 241 | 1050 | 27 | [3] fold
